We go through 28 compounds from ChEMBL document CHEMBL3297720, “Synthesis and evaluation of N-alkyl-9-aminoacridines with antibacterial activity” (2014).

SMILES strings stand for the structures. Values after ≈ are worked out from the molar mass of the structure shown. Active and inactive are the calls of the source. The calls are words filed in the database; no cut-off is given here.

Assay [1] has as its system Staphylococcus aureus. Briefly: Antibacterial activity against methicillin-resistant Staphylococcus aureus ATCC 43300 after 16 to 20 hrs by broth microdilution assay. The format is functional. Background: In broth dilution the organism is exposed to a series of concentrations in liquid medium.
In assay [2] the test system is Staphylococcus aureus. Briefly: Antibacterial activity against methicillin-sensitive Staphylococcus aureus […] 8545 after 16 to 20 hrs by broth microdilution assay. The format is functional.
Assay [3] has as its system Staphylococcus aureus. Briefly: Antibacterial activity against methicillin-resistant Staphylococcus aureus IDRL 6169 after 16 to 20 hrs by broth microdilution assay. The format is functional.
In a further assay the test system is Nucleic Acid. In words: Binding affinity to relaxed plasmid DNA (unknown origin) assessed as DNA intercalation at 4 to 100 uM after 10 mins by gel electrophoresis in presence of human topoisomerase 1. Format: nucleic-acid assay.

A word on the MIC99: it is an inhibitory concentration at the 99% level, which refers to growth in some studies and to a panel of isolates in others. Consider `CCCCCCCNc1c2ccccc2nc2ccccc12`, for which the MIC99 with Staphylococcus aureus [1] stood at 24.5 µM (≈ 7.16 µg/mL); against Staphylococcus aureus [2], 27.5 µM (≈ 8.05 µg/mL); with Staphylococcus aureus [3], 22.9 µM (≈ 6.68 µg/mL).

Take `CCCCCCCCNc1c2ccccc2nc2ccccc12`: the MIC99 worked out at 8.54 µM (≈ 2.62 µg/mL) against Staphylococcus aureus [1], 10.3 µM (≈ 3.14 µg/mL) with Staphylococcus aureus [2] and 10.8 µM (≈ 3.31 µg/mL) against Staphylococcus aureus [3].

Take `CCCCCCCCCCCCCNc1c2ccccc2nc2cc(C(=O)N3CCN(C)CC3)ccc12`: the MIC99 was 2.91 µM (≈ 1.46 µg/mL) in the assay on Staphylococcus aureus [1], 3.57 µM (≈ 1.79 µg/mL) in the assay on Staphylococcus aureus [2] and 3.07 µM (≈ 1.54 µg/mL) in the assay with Staphylococcus aureus [3].

With `CCCCCCCCCCCNc1c2ccccc2nc2cc(C(=O)N3CCN(C)CC3)ccc12`, the MIC99 came out at 3.61 µM (≈ 1.71 µg/mL) against Staphylococcus aureus [1], 6.23 µM (≈ 2.96 µg/mL) in the assay with Staphylococcus aureus [2] and 6.14 µM (≈ 2.91 µg/mL) against Staphylococcus aureus [3].

In the case of `CCCCCCCCCCCCCCCCNc1c2ccccc2nc2ccccc12`, the MIC99 in the assay on Staphylococcus aureus [1] came to 24.7 µM (≈ 10.3 µg/mL); against Staphylococcus aureus [2], 26.2 µM (≈ 11 µg/mL); against Staphylococcus aureus [3], 10.1 µM (≈ 4.25 µg/mL).

Turning to `CCCNc1c2ccccc2nc2cc(C(=O)N3CCN(C)CC3)ccc12`, the MIC99 with Staphylococcus aureus [1], with Staphylococcus aureus [2] and in the assay on Staphylococcus aureus [3] was greater than 100 µM throughout. Further, the result in the assay with Nucleic Acid was Active.

For `CCCCNc1c2ccccc2nc2ccccc12`, the MIC99 against Staphylococcus aureus [1], in the assay on Staphylococcus aureus [2] and against Staphylococcus aureus [3] was greater than 100 µM in each case.

For `CCCCCCCCCNc1c2ccccc2nc2cc(C(=O)N3CCN(C)CC3)ccc12`, the MIC99 was determined as 22.7 µM (≈ 10.1 µg/mL) with Staphylococcus aureus [1], 35.5 µM (≈ 15.8 µg/mL) with Staphylococcus aureus [2] and 23.7 µM (≈ 10.6 µg/mL) against Staphylococcus aureus [3].

As for `CCCNc1c2ccccc2nc2ccccc12`, the MIC99 against Staphylococcus aureus [1], against Staphylococcus aureus [2] and with Staphylococcus aureus [3] was greater than 100 µM each time. For the same compound, the result in the assay with Nucleic Acid was Active.

With `CCCCCCCCNc1c2ccccc2nc2cc(C(=O)N3CCN(C)CC3)ccc12`, the MIC99 in the assay on Staphylococcus aureus [1], against Staphylococcus aureus [2] and against Staphylococcus aureus [3] was greater than 100 µM each time.

`CCCCCCCNc1c2ccccc2nc2cc(C(=O)N3CCN(C)CC3)ccc12`: the MIC99 against Staphylococcus aureus [1], against Staphylococcus aureus [2] and against Staphylococcus aureus [3] was greater than 100 µM throughout.

For the compound `CCCCCCCCCCNc1c2ccccc2nc2ccccc12`, the figures for the MIC99 in the assay on Staphylococcus aureus [1], in the assay with Staphylococcus aureus [2] and in the assay on Staphylococcus aureus [3] were 2.19 µM (≈ 0.733 µg/mL), 2.61 µM (≈ 0.873 µg/mL) and 3.29 µM (≈ 1.1 µg/mL), respectively. Further, the result in the assay with Nucleic Acid was inactive.

Turning to `CCCCCNc1c2ccccc2nc2ccccc12`, the MIC99 in the assay on Staphylococcus aureus [1], against Staphylococcus aureus [2] and with Staphylococcus aureus [3] was greater than 100 µM throughout.

Consider `CCCCCCCCCCCCNc1c2ccccc2nc2cc(C(=O)N3CCN(C)CC3)ccc12`, for which the MIC99 with Staphylococcus aureus [1] amounted to 6.28 µM (≈ 3.07 µg/mL); in the assay with Staphylococcus aureus [2], 4.8 µM (≈ 2.35 µg/mL); against Staphylococcus aureus [3], 5.87 µM (≈ 2.87 µg/mL).

`CCCCCCCCCCCCCCCNc1c2ccccc2nc2ccccc12`: the MIC99 with Staphylococcus aureus [1] came out at 6.1 µM (≈ 2.47 µg/mL); in the assay on Staphylococcus aureus [2], 5.69 µM (≈ 2.3 µg/mL); in the assay with Staphylococcus aureus [3], 3.21 µM (≈ 1.3 µg/mL).

For `CCCCNc1c2ccccc2nc2cc(C(=O)N3CCN(C)CC3)ccc12`, the MIC99 in the assay on Staphylococcus aureus [1], against Staphylococcus aureus [2] and in the assay on Staphylococcus aureus [3] was greater than 100 µM throughout.

For `CCCCCCCCCCCCCCCNc1c2ccccc2nc2cc(C(=O)N3CCN(C)CC3)ccc12`, the figures for the MIC99 with Staphylococcus aureus [1], with Staphylococcus aureus [2] and in the assay with Staphylococcus aureus [3] were 4.59 µM (≈ 2.44 µg/mL), 5.91 µM (≈ 3.14 µg/mL) and 8.59 µM (≈ 4.56 µg/mL), respectively.

Take `CCCCCCCCCCCCCCNc1c2ccccc2nc2ccccc12`: the values for the MIC99 in the assay on Staphylococcus aureus [1], in the assay on Staphylococcus aureus [2] and in the assay on Staphylococcus aureus [3] were 3.07 µM (≈ 1.2 µg/mL), 2.98 µM (≈ 1.16 µg/mL) and 2.15 µM (≈ 0.84 µg/mL), respectively.

On to `CCCCCCCCCCNc1c2ccccc2nc2cc(C(=O)N3CCN(C)CC3)ccc12`, for which the MIC99 against Staphylococcus aureus [1] was 12.2 µM (≈ 5.6 µg/mL); in the assay on Staphylococcus aureus [2], 12 µM (≈ 5.51 µg/mL); in the assay on Staphylococcus aureus [3], 10.7 µM (≈ 4.95 µg/mL). Also, in the assay on Nucleic Acid, the outcome was inactive.

Turning to `CCCCCCNc1c2ccccc2nc2cc(C(=O)N3CCN(C)CC3)ccc12`, the MIC99 in the assay with Staphylococcus aureus [1], against Staphylococcus aureus [2] and against Staphylococcus aureus [3] was greater than 100 µM in each case.

In the case of `CCCCCCCCCCCCCNc1c2ccccc2nc2ccccc12`, the MIC99 against Staphylococcus aureus [1] turned out to be 3.04 µM (≈ 1.14 µg/mL); in the assay with Staphylococcus aureus [2], 2.61 µM (≈ 0.983 µg/mL); in the assay on Staphylococcus aureus [3], 2.8 µM (≈ 1.05 µg/mL).

Regarding `CCCCCCCCCCCCNc1c2ccccc2nc2ccccc12`, the MIC99 with Staphylococcus aureus [1] stood at 2.88 µM (≈ 1.04 µg/mL); in the assay with Staphylococcus aureus [2], 2.88 µM (≈ 1.04 µg/mL); in the assay with Staphylococcus aureus [3], 2.73 µM (≈ 0.99 µg/mL).

For `CCCCCCCCCCCCCCNc1c2ccccc2nc2cc(C(=O)N3CCN(C)CC3)ccc12`, the MIC99 against Staphylococcus aureus [1] turned out to be 5.82 µM (≈ 3.01 µg/mL); with Staphylococcus aureus [2], 6.25 µM (≈ 3.23 µg/mL); with Staphylococcus aureus [3] it was 6.13 µM (≈ 3.17 µg/mL).

Take `CCCCCCCCCCCCCCCCNc1c2ccccc2nc2cc(C(=O)N3CCN(C)CC3)ccc12`: the MIC99 against Staphylococcus aureus [1] is 6.23 µM (≈ 3.39 µg/mL); in the assay with Staphylococcus aureus [2] it was 11.6 µM (≈ 6.31 µg/mL); in the assay on Staphylococcus aureus [3] it was 9.06 µM (≈ 4.94 µg/mL).

As to `CCCCCNc1c2ccccc2nc2cc(C(=O)N3CCN(C)CC3)ccc12`, the MIC99 against Staphylococcus aureus [1], against Staphylococcus aureus [2] and against Staphylococcus aureus [3] was greater than 100 µM in each case.

Turning to `CCCCCCCCCNc1c2ccccc2nc2ccccc12`, the MIC99 turned out to be 3.19 µM (≈ 1.02 µg/mL) with Staphylococcus aureus [1], 5.95 µM (≈ 1.91 µg/mL) in the assay on Staphylococcus aureus [2] and 3.59 µM (≈ 1.15 µg/mL) against Staphylococcus aureus [3].

Turning to `CCCCCCCCCCCNc1c2ccccc2nc2ccccc12`, the MIC99 with Staphylococcus aureus [1] turned out to be 2.01 µM (≈ 0.701 µg/mL); in the assay with Staphylococcus aureus [2], 3.81 µM (≈ 1.33 µg/mL); against Staphylococcus aureus [3] it was 2.73 µM (≈ 0.951 µg/mL).

As to `CCCCCCNc1c2ccccc2nc2ccccc12`, the MIC99 with Staphylococcus aureus [1] is 50.6 µM (≈ 14.1 µg/mL); against Staphylococcus aureus [2] it was greater than 100 µM; with Staphylococcus aureus [3], 46.9 µM (≈ 13.1 µg/mL).
